A short description of assay [1]: Sensorial tests of the taste of the compounds (own investigations). It is filed as in vivo. The note with it: for cooling effect / salt-intensifying effect: sensorial tests; for intrinsic umami taste: sensorial tests of the compound. The source says:
From the taste aspect the use according to the invention of a compound of the Formula (I) which is one of the two enantiomeric compounds of the Formula (IVa),
In this connection the relative configuration of the stereogenic centers is of great importance.

The next assay concerns trained panel. Description: Sensorial tests in American beef bouillon / meat broth by trained panel (mouthfeel, comparison with MSG). Type of assay: in vivo. To be noted: for umami taste compared to other compounds having an umami taste / MSG: American beef bouillon base, 5 ppm (IVc), 2 ppm (B1)+(B2), 0.5 ppm (P1)+(P2) vs 0.05 wt. % MSG (FIG. 1-3). The source says:
This is also illustrated in the accompanying spider diagrams, in which an American beef bouillon as base is compared firstly to such a base containing an addition of 5 ppm of (1R,2S,5R,6S,7R)-2-isopropyl-5-methyl-bicyclo[4.1.0]heptane-7-carboxylic acid ethylamide (IVc) (FIG. 1) or 2 ppm of a mixture of (1S,2S,5R,6R,7S)-2-isopropyl-5-methyl-bicyclo[4.1.0]heptane-7-carboxylic acid cyclobutylamide (B1) and (1R,2S,5R,6S,7R)-2-isopropyl-5-methyl-bicyclo[4.1.0]heptane-7-carboxylic acid cyclobutylamide (B2) (FIG. 2) or 0.5 ppm of a mixture of (1S,2S,5R,6R,7S)-2-isopropyl-5-methyl-bicyclo[4.1.0]heptane-7-carboxylic acid cyclopentylamide (P1) and (1R,2S,5R,6S,7R)-2-isopropyl-5-methyl-bicyclo[4.1.0]heptane-7-carboxylic acid-cyclopentylamide (P2) (FIG. 3) respectively, and secondly with such a base containing an addition of 0.05 wt. % of MSG.
The mean values of the respective scores are shown.
The taste of a 0.5% American beef extract as base (continuous, pale line) was compared on the basis of an evaluation by a panel of trained testers with the taste firstly of such a base to which 5 ppm of (1R,2S,5R,6S,7R)-2-isopropyl-5-methyl-bicyclo[4.1.0]heptane-7-carboxylic acid ethylamide had been added (continuous, dark line), and secondly of such a base to which 0.05 wt. % of MSG had been added (dotted line).
The taste of a 0.5% American beef extract as base (continuous, pale line) was compared on the basis of an evaluation by a panel of trained testers to the taste firstly of such a base to which 2 ppm of a mixture of 1S,2S,5R,6R,7S)-2-isopropyl-5-methyl-bicyclo[4.1.0]heptane-7-carboxylic acid cyclobutylamide (B1) and (1R,2S,5R,6S,7R)-2-isopropyl-5-methyl-bicyclo[4.1.0]heptane-7-carboxylic acid cyclobutylamide (B2) had been added (continuous, dark line), and secondly of such a base to which 0.05 wt. % of MSG had been added (dotted line).
The taste of a 0.5 wt. % American beef extract as base (continuous, pale line) was compared on the basis of an evaluation by a panel of trained testers with the taste firstly of such a base to which 0.5 ppm of a mixture of (1S,2S,5R,6R,7S)-2-Isopropyl-5-methyl-bicyclo[4.1.0]heptane-7-carboxylic acid cyclopentylamide (P1) and (1R,2S,5R,6S,7R)-2-isopropyl-5-methyl-bicyclo[4.1.0]heptane-7-carboxylic acid cyclopentylamide (P2) had been added (continuous, dark line), and secondly of such a base to which 0.05 wt. % of MSG had been added (dotted line).

For the molecule `CCNC(=O)C1C2C1[C@H](C)CC[C@H]2C(C)C` (single isomer, unassigned) [mixture of both diastereomers], in assay [1], the cooling effect result is “can no longer be detected” and the intrinsic umami taste result is “completely dominated by the umami impression of the (1R,2S,5R,6S,7R) isomer”. As for `CC(C)[C@@H]1CC[C@@H](C)[C@H]2[C@H](C(=O)NC3CCCCC3)[C@H]21` [Formula (H1), (1S,2S,5R,6R,7S)-2-isopropyl-5-methyl-bicyclo[4.1.0]heptane-7-carboxylic acid cyclohexylamide], in assay [1], the intrinsic umami taste entry is recorded as “very strongly pronounced”. As for “(1R,2S,5R,6S,7R)-2-isopropyl-5-methyl-bicyclo[4.1.0]heptane-7-carboxylic acid cyclohexylamide/(1S,2S,5R,6R,7S)-2-isopropyl-5-methyl-bicyclo[4.1.0]heptane-7-carboxylic acid cyclohexylamide [mixture of (H1) and (H2)]”, the intrinsic umami taste entry in assay [1] is reported as “umami note was also detected, which however developed somewhat more slowly”. On to `CCNC(=O)C1C2C(C)CCC(C(C)C)C12` (stereo not drawn) [2-Isopropyl-5-methyl-2-ispropyl-bicyclo[4.1.0]heptane-7-carboxylic acid ethylamide], for which, in assay [1] (in vivo), the sensorial properties entry is listed as “particularly strong”. On to `CCNC(=O)C1C2C3CCC(C3)C12` (stereo not drawn) [Tricyclo[3.2.1.0^2,4]octane-3-carboxylic acid N-ethylamide], for which, in the assay with trained panel (50 ppm in broths/consommés made from American beef extract), the mouthfeel result was “statistically significant increase”. In assay [1], the salt-intensifying effect result is recorded as “salt-intensifying effect” and the intrinsic umami taste entry is listed as “distinct umami taste”. As to “(1R,2S,5R,6S,7R)-2-isopropyl-5-methyl-bicyclo[4.1.0]heptane-7-carboxylic acid cyclobutylamide/(1S,2S,5R,6R,7S)-2-isopropyl-5-methyl-bicyclo[4.1.0]heptane-7-carboxylic acid cyclobutylamide [mixture of (B1) and (B2)]”, the “umami taste compared to other compounds having an umami taste / MSG” value with trained panel is given as “clear umami taste very similar to sodium glutamate (MSG)”. Further, the sweetish impression result in assay [1] (in vivo) was “slightly sweetish impression”. In addition, in assay [1], the intrinsic umami taste result was “very strong umami note”. For the molecule `CC(C)[C@@H]1CC[C@@H](C)[C@@H]2[C@@H](C(=O)NC3CCCCC3)[C@@H]21` [Formula (H2), (1R,2S,5R,6S,7R)-2-isopropyl-5-methyl-bicyclo[4.1.0]heptane-7-carboxylic acid-cyclohexylamide], the intrinsic umami taste entry in assay [1] is “very strongly pronounced”. Still for that read-out and setting: the result for `CC(C)[C@@H]1CC[C@@H](C)[C@H]2[C@H](C(=O)NC3CCC3)[C@H]21` [Formula (B1), (1S,2S,5R,6R,7S)-2-isopropyl-5-methyl-bicyclo[4.1.0]heptane-7-carboxylic acid cyclobutylamide] reads “very strongly pronounced”. `CCNC(=O)[C@@H]1[C@@H]2[C@H]1[C@H](C)CC[C@H]2C(C)C` [(1S,2S,5R,6R,7S)-2-isopropyl-5-methyl-bicyclo[4.1.0]heptane-7-carboxylic acid ethylamide]: in assay [1], the cooling effect entry is given as “slight” and the intrinsic umami taste entry was “only moderately”.

Take `CC(C)[C@@H]1CC[C@@H](C)[C@@H]2[C@@H](C(=O)NC3CCC3)[C@@H]21` [Formula (B2), (1R,2S,5R,6S,7R)-2-isopropyl-5-methyl-bicyclo[4.1.0]heptane-7-carboxylic acid-cyclobutylamide]: the intrinsic umami taste entry in assay [1] is “very strongly pronounced”. For the molecule `CCNC(=O)C1C2CC(C)CC(C)C21` (stereo not drawn) [2,4-dimethyl-bicyclo[4.1.0]heptane-7-carboxylic acid ethylamide], in assay [1], the salt-intensifying effect result was “slight” and the intrinsic umami taste result is given as “stronger, umami-like”. Consider `CCNC(=O)C1C2CCCCC21` (stereo not drawn) [Bicyclo[4.1.0]heptane-7-carboxylic acid N-ethylamide, reference compound], for which the taste result in assay [1] (in vivo) is “no detectable taste”. Consider `CCNC(=O)C1C2CCCC(C(C)C)C21` (stereo not drawn) [2-isopropyl-bicyclo[4.1.0]heptane-7-carboxylic acid ethylamide, reference compound], for which, in assay [1], the salt-intensifying effect result is listed as “slight” and the intrinsic umami taste entry is on record as “very slight, umami-like”. With `CCNC(=O)[C@@H]1[C@@H]2[C@H]1[C@H](C(C)C)CC[C@H]2C` (single isomer, unassigned) [Formula (IVc)], in the assay on trained panel (5 ppm added to 0.5 wt. % American beef bouillon, compared with 0.05 wt. % MSG), the mouthfeel result is listed as “increased by roughly the same extent as is normally achieved only by the addition of 0.05 wt. % of MSG”. For the same molecule, in the assay on trained panel, the “umami taste compared to other compounds having an umami taste / MSG” value was “clear umami taste very similar to sodium glutamate (MSG)”. The “intensification of saltiness, sweetness and umami taste of aroma compositions” value in assay [1] (in vivo) was “intensifies the saltiness, the sweetness and the umami taste”. Further, in assay [1], the cooling effect entry was “no cooling effect” and the intrinsic umami taste entry is “very strongly pronounced”. For “(1R,2S,5R,6S,7R)-2-isopropyl-5-methyl-bicyclo[4.1.0]heptane-7-carboxylic acid cyclopentylamide/(1S,2S,5R,6R,7S)-2-isopropyl-5-methyl-bicyclo[4.1.0]heptane-7-carboxylic acid cyclopentylamide [mixture of (P1) and (P2)]”, the “umami taste compared to other compounds having an umami taste / MSG” value in the assay on trained panel is reported as “clear umami taste very similar to sodium glutamate (MSG)”. For the same molecule, the umami taste entry in assay [1] (at very low concentrations) was “very much more intensive and clear”. For the molecule `CCNC(=O)C1CC1` [cyclopropanecarboxylic acid ethylamide, Cyclopropanecarboxylic acid N-ethylamide, reference compound], the “contribution to the mouthfeel” value in the assay on trained panel (meat broth/consommé compositions) is given as “does not make any statistically significant contribution”. Moreover, the umami taste result in assay [1] (10 ppm in aqueous solutions) is listed as “very weak umami taste”.

Values taken from patent US8487133B2, “Substituted bicyclo [4.1.0] heptane-7-carboxylic acid amides and derivatives thereof as food flavor substances” (Symrise AG, priority 2006, dated 2013).
